ChEMBL document CHEMBL2157937, “Discovery and optimization of C-2 methyl imidazopyrrolopyridines as potent and orally bioavailable JAK1 inhibitors with selectivity over JAK2” (J Med Chem, 2012)
≈ marks a conversion by molar mass, not a printed value. Values belong to the molecule of their own block, whether it stands above or below them.

Tests used:
[1] = in vivo; settings: Sprague-Dawley, rat, iv, 0.4 mg/kg
[2] = in vivo; settings: Sprague-Dawley, rat, plasma, po, 2 mg/kg
[3] = in vivo; settings: Sprague-Dawley, rat, po, 0.4 mg/kg
[4] = in vivo; settings: Sprague-Dawley, rat, po, 2 mg/kg
[5] = physchem; settings: octanol/PBS buffer, pH 7.2
[6] = in vitro; settings: human, hepatocytes
[7] = physchem; settings: buffer, pH 7.4
[8] = physchem; settings: buffer, pH 2
[9] = in vitro; settings: Sprague-Dawley, rat, hepatocytes
[10] = organism: Rattus norvegicus; settings: in vivo, po, 2 mg/kg
[11] = Clearance in rat at 2 mg/kg, po; type: ADME, organism-based; set-up: dose 2 mg/kg, route oral; settings: in vivo
[12] = AUC in rat at 2 mg/kg, po; type: ADME, organism-based; set-up: dose 2 mg/kg, route oral; settings: plasma
[13] = in vivo; settings: rat, po, 2 mg/kg
[14] = in vivo; settings: rat, po, 2 mg/kg; remark: listed apart in the source

clearance [1]: 43 mL/min/kg | AUC [2]: 0.12 µM·h | Cmax [3]: 60 nM | bioavailability [4]: 4% | logD at 1 h, 10000 µM [5]: 0.1 | half-life at 1 µM [6]: > 480 min | solubility thermodynamic at 24 h [7]: > 1500 µM | solubility thermodynamic at 24 h [8]: > 5 mM | half-life at 1 µM [9]: > 480 min
SMILES: Cc1nc2cnc3[nH]ccc3c2n1C1CCNCC1

logD at 1 h, 10000 µM [5]: 1.3 | half-life at 1 µM [6]: > 480 min
SMILES: Cc1nc2cnc3[nH]ccc3c2n1C1CCN(CCC#N)CC1

logD at 1 h, 10000 µM [5]: 1.8 | half-life at 1 µM [6]: 378 min
SMILES: Cc1nc2cnc3[nH]ccc3c2n1[C@H]1CCCOC1

logD at 1 h, 10000 µM [5]: 0.6 | half-life at 1 µM [6]: > 480 min
SMILES: Cc1nc2cnc3[nH]ccc3c2n1[C@H]1CCCNC1

clearance [1]: 80 mL/min/kg | AUC [2]: 0.18 µM·h | Cmax [3]: 150 nM | bioavailability [4]: 13% | logD at 1 h, 10000 µM [5]: 0.9 | half-life at 1 µM [6]: > 480 min | solubility thermodynamic at 24 h [7]: > 1500 µM | solubility thermodynamic at 24 h [8]: > 5 mM | half-life at 1 µM [9]: > 480 min
SMILES: Cc1nc2cnc3[nH]ccc3c2n1[C@H]1CC[C@H](NCCC#N)CC1

logD at 1 h, 10000 µM [5]: 1.2 | half-life at 1 µM [6]: > 480 min
SMILES: Cc1nc2cnc3[nH]ccc3c2n1[C@H]1CC[C@H](NS(C)(=O)=O)CC1

logD at 1 h, 10000 µM [5]: 1.1
SMILES: CC(=O)N[C@H]1CC[C@H](n2c(C)nc3cnc4[nH]ccc4c32)CC1

clearance [1]: 40 mL/min/kg | AUC [2]: 1.4 µM·h | Cmax [3]: 550 nM | bioavailability [4]: 54% | logD at 1 h, 10000 µM [5]: 2 | half-life at 1 µM [6]: 234 min | solubility thermodynamic at 24 h [7]: 40 µM (≈ 13.1 µg/mL) | solubility thermodynamic at 24 h [8]: 2.3 mM (≈ 753 µg/mL) | half-life at 1 µM [9]: 210 min
SMILES: COC(=O)N[C@H]1CC[C@H](n2c(C)nc3cnc4[nH]ccc4c32)CC1

logD at 1 h, 10000 µM [5]: 1.4 | half-life at 1 µM [6]: > 480 min
SMILES: Cc1nc2cnc3[nH]ccc3c2n1[C@H]1CC[C@H](O)CC1

logD at 1 h, 10000 µM [5]: 1.4 | half-life at 1 µM [6]: > 480 min
SMILES: Cc1nc2cnc3[nH]ccc3c2n1[C@H]1CC[C@@H](O)CC1

F [10]: 172% | clearance [1]: 40 mL/min/kg | AUC [2]: 5.3 µM·h | Cmax [3]: 4500 nM | logD at 1 h, 10000 µM [5]: 1.2 | half-life at 1 µM [6]: 108 min | solubility thermodynamic at 24 h [7]: > 1500 µM | half-life at 1 µM [9]: 96 min
SMILES: Cc1nc2cnc3[nH]ccc3c2n1[C@@H]1CCNC[C@H]1F (relative stereo)

logD at 1 h, 10000 µM [5]: 0.7
SMILES: Cc1nc2cnc3[nH]ccc3c2n1[C@@H]1CCNC[C@@H]1F (relative stereo)

logD at 1 h, 10000 µM [5]: 1.6 | half-life at 1 µM [6]: > 480 min
SMILES: Cc1nc2cnc3[nH]ccc3c2n1[C@@H]1CCCC[C@H]1O (relative stereo)

CL/F [11]: 43 mL/min/kg | AUC [12]: 2.1 µM·h | Cmax [13]: 1700 nM | bioavailability [14]: 87%
SMILES: C[C@@H]1CCN(C(=O)CC#N)C[C@@H]1N(C)c1ncnc2[nH]ccc12 [TOFACITINIB]
